“Also recorded” adds a separate entry of the source. Structures can show the parent of a compound that is named as a salt.
Experiments:
Assay type in all cases: in vivo
[1] = tested on: female NMRI mice; assay: Analgesic effect (D'Amour and Smith tail-flick method); details: for Analgesic effect ED 100%: intraperitoneal, mice, dose lengthening tail-flick reaction time by 100%, 30 minutes after administration; for Analgesic effect R.A. (relative activity): relative to Clozapin (1.00); for Analgesic effect (in words): discussion of Table 1
Protocol: The analgesic effect is determined by means of the D'Amour and Smith (1941) tail-flick method. In this, the substances are administered intraperitoneally to groups of 10 female NMRI mice. The pain reaction is triggered 30 minutes after administration. The reaction time, until the tail is flicked out of the way after exposure to a focused light beam, is measured.

[2] = tested on: female Sprague-Dawley rats; assay: Apomorphine-antagonistic effect (jaw movements, mandibulogram); details: for Apomorphine antagonism R.A. (relative activity): relative to Clozapin (1.00)
Protocol: 4. Apomorphine-antagonistic effect
Jaw motions are triggered in groups of 4-6 female Sprague-Dawley rats by subcutaneous administration of 1.5 mg of apomorphine/kg, and are recorded by means of implanted electrodes (Kubacki mandibulogram, 1978) .

[3] = tested on: female NMRI mice; assay: Sedative effect (orientation hypermotility); details: for Sedative effect R.A. (relative activity): relative to Clozapin (1.00); for Sedative effect (in words): discussion of Table 1
Protocol: The substances are administered orally to groups of 4×3 or 8×3 female NMRI mice. The orientation hypermotility induced by a new environment is determined photoelectrically, 30 minutes after the administration of the substances, for a period of 30 minutes.

[4] = tested on: female NMRI mice; assay: Anti-cholinergic effect (protection against death from Physostigmin)
Protocol: 3. Anti-cholinergic effect
A lethal dose (0.825 mg/kg) of Physostigmin is administered subcutaneously to groups of 10 female NMRI mice. The test substances are administered orally 30 minutes before administering the Physostigmin.

| Structure (SMILES) | Analgesic effect ED 100% [1] [mg/kg] | Apomorphine antagonism R.A. (relative activity) [2] | Sedative effect R.A. (relative activity) [3] | Analgesic effect R.A. (relative activity) [1] | other results |
| --- | --- | --- | --- | --- | --- |
| Cc1ccc2c(c1)N=C(N1CCN(C)CC1)c1ccccc1C2=CC#N (mixture of isomers) [13a cis-trans M, cis,trans-3-Methyl-11-cyanomethylene-6-(4-methylpiperazin-1-yl)-morphanthridine] | 5.17 | – | – | – | – |
| N#CC=C1c2ccccc2N=C(N2CCCNCC2)c2ccccc21 (mixture of isomers) [32 cis-trans M, cis,trans-11-Cyanomethylene-6-homopiperazin-1-yl-morphanthridine.HCl.H2 O] | 46.4 | < 0.08 | > 0.22 | 0.04 | – |
| CN1CCN(C2=Nc3ccccc3/C(=C/C#N)c3ccccc32)CC1 [1 cis-isomer, cis-11-cyanomethylene-6-(4-methylpiperazin-1-yl)-morphanthridine] | 31.6 | – | – | – | Anti-cholinergic effect (in words) ([4]; discussion of Table 1, Physostigmin antagonism): approximately comparable anti-cholinergic effect |
| C[N+]1([O-])CCN(C2=Nc3ccccc3/C(=C\C#N)c3ccccc32)CC1 [67 trans-isomer, t rans-11-cyanomethylene-6-(4-methyl-4-oxy-piperazin-1-yl)-morphanthridine] | > 100 | 0.32 | 0.04 | < 0.02 | – |
| Cc1ccc2c(c1)C(=CC#N)c1ccccc1C(N1CCN(C)CC1)=N2 (mixture of isomers) [13b cis-trans M, cis,trans-2-Methyl-11-cyanomethylene-6-(4-methyl-piperazin-1-yl)-morphanthridine] | 10 | – | – | – | – |
| CCN1CCN(C2=Nc3ccccc3C(=CC#N)c3ccccc32)CC1 (mixture of isomers) [31 cis-trans M, cis,trans-11-Cyanomethylene-6-(4-ethyl-piperazin-1-yl)-morphanthridine] | > 10 | – | – | – | – |
| Cc1ccc2c(c1)N=C(N1CCN(C)CC1)c1ccccc1/C2=C\C#N [13a cis-isomer, cis-3-methyl-11-cyanomethylene-6-(4-methyl-piperazin-1-yl)-morphanthridine] | 0.74 | – | – | – | Sedative effect (in words) [3]: responsible for the strong sedative and strong analgesic effects; Analgesic effect (in words) [1]: An analgesic effect is found; also recorded: responsible for the strong sedative and strong analgesic effects |
| CN1CCN(C2=Nc3ccccc3Cc3ccccc32)CC1 [Perlapin, reference compound] | – | 0.37 | 2.31 | < 0.10 | – |
| Cc1ccc2c(c1)N=C(N1CCN(C)CC1)c1ccccc1/C2=C/C#N [13a trans-isomer, trans-3-methyl-11-cyanomethylene-6-(4-methylpiperazin-1-yl)-morphanthridine] | 68.1 | – | – | – | – |
| CN1CCN(C2=Nc3cc(Cl)ccc3Nc3ccccc32)CC1 [Clozapin, reference compound] | 2.08 | 1.00 | 1.00 | 1.00 | – |
| CN1CCN(C2=Nc3ccccc3/C(=C\C#N)c3ccccc32)CC1 [1 trans-isomer, trans-11-cyanomethylene-6-(4-methyl-piperazin-1-yl)-morphanthridine] | > 21.5 | – | – | – | – |
| CCN1CCN(C2=Nc3ccccc3/C(=C\C#N)c3ccccc32)CC1 [31 trans-isomer, trans-11-cyanomethylene-6-(4-ethyl-piperazin-1-yl)-morphanthridine] | > 46.4 | – | – | – | – |
| C[N+]1([O-])CCN(C2=Nc3ccccc3C(=CC#N)c3ccccc32)CC1 (mixture of isomers) [67 cis-trans M, cis,trans-11-Cyanomethylene-6-(4-methyl-4-oxypiperazin-1-yl)-morphanthridine.2H2 O] | > 46.4 | 0.09 | 0.33 | < 0.04 | – |
| C[N+]1([O-])CCN(C2=Nc3ccccc3/C(=C/C#N)c3ccccc32)CC1 [67 cis-isomer, cis-11-cyanomethylene-6-(4-methyl-4-oxy-piperazin-1-yl)-morphanthridine] | > 46.4 | < 0.08 | 0.26 | < 0.04 | – |
| CN1CCN(C2=Nc3ccccc3C(=CC#N)c3ccccc32)CC1 [1 cis-trans M, cis- and trans-11-Cyanomethylene-6-(4-methyl-piperazin-1-yl)-morphanthridine] | 46.4 | – | – | – | Apomorphine-antagonistic effect (in words) ([2]; discussion of Table 1): somewhat weaker than that of Clozapin; Sedative effect (in words) ([3]; listed as Example 1 (cis-trans mixture)): relatively strong sedative effects; also recorded: more strongly sedative; ED50 ([4]; Mus musculus, read-out: Anti-cholinergic effect ED 50%, oral, 30 minutes before Physostigmin 0.825 mg/kg subcutaneous, mice, dose protecting 50% of the animals against death): 6.26 mg/kg; Analgesic effect (in words) [1]: not analgesically active |
| N#CC=C1c2ccccc2N=C(NCCN2CCCCC2)c2ccccc21 (mixture of isomers) [38 cis-trans M, cis,trans-11-Cyanomethylene-6-(2-piperidin-1-yl-ethylamino)-morphanthridine.1/2H2 O] | > 10 | 0.17 | 2.94 | – | – |
